# Test system: Trichosporon cutaneum IFO 1189
# Test: Antifungal activity, minimum growth inhibition concentration (MIC), agar plate dilution method
# Type: cell-based
# Conditions: Cutaneotrichosporon cutaneum, IFO1189, 48 h; agar plate dilution method, Trichosporon cutaneum IFO 1189, culture at 37° C. for 2 days, yeast-nitrogen base with 1% glucose
row,MIC,SMILES
1,12.5 µg/mL,"C=C1C2CC3C(C(C)C)C(NC(=O)CC(C)(O)CC(C)CC)CC3(C)CC2C(C)=CCC2C(C)OC(=O)C(O)C12O (stereo not shown) [Compound 54, N'-(1,13a-dihydroxy-11-isopropyl-4,7,8a-trimethyl-13-methylene-2-oxo-1,2,4,4a,5,7a,8,8a,9,10,11,11a,12,12a,13,13a-hexadecahydroindeno[5',6': 4,5]cycloocta [1,2-c]pyran-10-yl)-3-hydroxy-3,5-dimethylheptanamide]"
2,3.13 µg/mL,"C=C1C2CC3C(C(C)C)C(OC(=O)Nc4ccc(F)cc4)CC3(C)CC2C(C)=CCC2C(C)OC(=O)C(O)C12O (stereo not shown) [Compound 39, 1,13a-dihydroxy-11-isopropyl-4,7,8a-trimethyl-13-methylene-2-oxo-1,2,4,4a,5,7a,8,8a,9,10,11,11a,12,12a,13,13a-hexadecahydroindeno[5',6':4,5]cycloocta[1,2-c]pyran-10-yl N-(4-fluorophenyl)carbamate]"
3,12.5 µg/mL,"C=C1C2CC3C(C(C)C)C(OC(=O)c4ccc(F)cc4)CC3(C)CC2C(C)=CCC2C(C)OC(=O)C(O)C12O (stereo not shown) [Compound 23, 1,13a-dihydroxy-11-isopropyl-4,7,8a-trimethyl-13-methylene-2-oxo-1,2,4,4a,5,7a,8,8a,9,10,11,11a,12,12a,13,13a-hexadecahydroindeno[5',6':4,5]cycloocta[1,2-c]pyran-10-yl 4-fluorobenzoate]"
4,3.13 µg/mL,"C=C1C2CC3C(C(C)C)C(OC(=O)c4ccc(Cl)nc4)CC3(C)CC2C(C)=CCC2C(C)OC(=O)C(O)C12O (stereo not shown) [Compound 26, 1,13a-dihydroxy-11-isopropyl-4,7,8a-trimethyl-13-methylene-2-oxo-1,2,4,4a,5,7a,8,8a,9,10,11,11a,12,12a,13,13a-hexadecahydroindeno[5',6':4,5]cycloocta[1,2-c]pyran-10-yl 6-chloronicotinate]"
5,6.25 µg/mL,"C=C1C2CC3C(C(C)C)C(OC(=O)CCC)CC3(C)CC2C(C)=CCC2C(C)OC(=O)C(O)C12O (stereo not shown) [Compound 5, 1,13a-dihydroxy-11-isopropyl-4,7,8a-trimethyl-13-methylene-2-oxo-1,2,4,4a,5,7a,8,8a,9,10,11,11a,12,12a,13,13a-hexadecahydroindeno[5',6':4,5]cycloocta[1,2-c]pyran-10-yl butanoate]"
6,12.5 µg/mL,"C=C1C2CC3C(C(C)C)C(OC(=O)NC4CCCCO4)CC3(C)CC2C(C)=CCC2C(C)OC(=O)C(O)C12O (stereo not shown) [Compound 42, 1,13a-dihydroxy-11-isopropyl-4,7,8a-trimethyl-13-methylene-2-oxo-1,2,4,4a,5,7a,8,8a,9,10,11,11a,12,12a,13,13a-hexadecahydroindeno[5',6':4,5]cycloocta[1,2-c]pyran-10-yl N-tetrahydro-2H-pyran-2-ylcarbamate]"
7,12.5 µg/mL,"C=C1C2CC3C(C(C)C)C(OS(=O)(=O)/C=C/c4ccccc4)CC3(C)CC2C(C)=CCC2C(C)OC(=O)C(O)C12O (stereo not shown) [Compound 31, 1,13a-dihydroxy-11-isopropyl-4,7,8a-trimethyl-13-methylene-2-oxo-1,2,4,4a,5,7a,8,8a,9,10,11,11a,12,12a,13,13a-hexadecahydroindeno[5',6':4,5]cycloocta[1,2-c]pyran-10-yl (E)-2-phenyl-1-ethene-1sulfonate]"
8,3.13 µg/mL,"C=C1C2CC3C(C(C)C)C(OC(=O)Nc4ccccc4)CC3(C)CC2C(C)=CCC2C(C)OC(=O)C(O)C12O (stereo not shown) [Compound 43, 1,13a-dihydroxy-11-isopropyl-4,7,8a-trimethyl-13-methylene-2-oxo-1,2,4,4a,5,7a,8,8a,9,11a,12,12a,13,13a-hexadecahydroindeno[5',6':4,5]cycloocta [1,2-c]pyran-10-yl N-phenylcarbamate]"
9,≥ 100 µg/mL,"C[C@@H]1[C@H](O)[C@@H](C)/C=C/C=C/C=C/C=C/C=C/C=C/C=C/[C@H](O[C@@H]2O[C@H](C)[C@@H](O)[C@H](N)[C@@H]2O)C[C@@H]2O[C@](O)(C[C@@H](O)C[C@@H](O)[C@H](O)CC[C@@H](O)C[C@@H](O)CC(=O)O[C@H]1C)C[C@H](O)[C@H]2C(=O)O [amphotericin B, reference compound]"
10,6.25 µg/mL,"C=C1C2CC3C(C(C)C)C(OC(=O)NCc4ccccc4)CC3(C)CC2C(C)=CCC2C(C)OC(=O)C(O)C12O (stereo not shown) [Compound 40, 1,13a-dihydroxy-11-isopropyl-4,7,8a-trimethyl-13-methylene-2-oxo-1,2,4,4a,5,7a,8,8a,9,10,11,11a,12,12a,13,13a-hexadecahydroindeno[5',6':4,5]cycloocta[1,2-c]pyran-10-yl N-benzylcarbamate]"
11,6.25 µg/mL,"C=C1C2CC3C(C(C)C)C(OC(=O)CC(C)C)CC3(C)CC2C(C)=CCC2C(C)OC(=O)C(O)C12O (stereo not shown) [Compound 9, 1,13a-dihydroxy-11-isopropyl-4,7,8a-trimethyl-13-methylene-2-oxo-1,2,4,4a,5,7a,8,8a,9,10,11,11a,12,12a,13,13a-hexadecahydroindeno[5',6':4,5]cycloocta[1,2-c]pyran-10-yl 3-methylbutanoate]"
12,6.25 µg/mL,"C=C1C2CC3C(C(C)C)C(NC(=O)Cc4ccc(Cl)cc4)CC3(C)CC2C(C)=CCC2C(C)OC(=O)C(O)C12O (stereo not shown) [Compound 65, N'-(1,13a-dihydroxy-11-isopropyl-4,7,8a-trimethyl-13-methylene-2-oxo-1,2,4,4a,5,7a,8,8a,9,10,11,11a,12,12a,13,13a-hexadecahydroindeno[5',6': 4,5]cycloocta[1,2-c]pyran-10-yl)-4-chlorophenylacetamide]"
13,12.5 µg/mL,"C=C1C2CC3C(C(C)C)C(OC(=O)C(O)CCCC)CC3(C)CC2C(C)=CCC2C(C)OC(=O)C(O)C12O (stereo not shown) [Compound 14, 1,13a-dihydroxy-11-isopropyl-4,7,8a-trimethyl-13-methylene-2-oxo-1,2,4,4a,5,7a,8,8a,9,10,11,11a,12,12a,13,13a-hexadecahydroindeno[5',6':4,5]cycloocta[1,2-c]pyran-10-yl 2-hydroxyhexanoate]"
14,6.25 µg/mL,"C=C1C2CC3C(C(C)C)C(NC(=O)Cc4csc5ccccc45)CC3(C)CC2C(C)=CCC2C(C)OC(=O)C(O)C12O (stereo not shown) [Compound 64, N'-(1,13a-dihydroxy-11-isopropyl-4,7,8a-trimethyl-13-methylene-2-oxo-1,2,4,4a,5,7a,8,8a,9,10,11,11a,12,12a,13,13a-hexadecahydroindeno[5',6': 4,5]cycloocta[1,2-c]pyran-10-yl)-3-benzo[b]thienylacetamide]"
15,6.25 µg/mL,"C=C1C2CC3C(C(C)C)C(OC(=O)NCC)CC3(C)CC2C(C)=CCC2C(C)OC(=O)C(O)C12O (stereo not shown) [Compound 33, 1,13a-dihydroxy-11-isopropyl-4,7,8a-trimethyl-13-methylene-2-oxo-1,2,4,4a,5,7a,8,8a,9,10,11,11a,12,12a,13,13a-hexadecahydroindeno[5',6':4,5]cycloocta[1,2-c]pyran-10-yl N-ethylcarbamate]"
16,6.25 µg/mL,"C=C1C2CC3C(C(C)C)C(OS(=O)(=O)CCCC)CC3(C)CC2C(C)=CCC2C(C)OC(=O)C(O)C12O (stereo not shown) [Compound 32, 1,13a-dihydroxy-11-isopropyl-4,7,8a-trimethyl-13-methylene-2-oxo-1,2,4,4a,5,7a,8,8a,9,10,11,11a,12,12a,13,13a-hexadecahydroindeno[5',6':4,5]cycloocta[1,2-c]pyran-10-yl 1butanesulfonate]"
17,12.5 µg/mL,"C=C1C2CC3C(C(C)C)C(OC(=O)NC4CCCCC4)CC3(C)CC2C(C)=CCC2C(C)OC(=O)C(O)C12O (stereo not shown) [Compound 46, 1,13a-dihydroxy-11-isopropyl-4,7,8a-trimethyl-13-methylene-2-oxo-1,2,4,4a,5,7a,8,8a,9,10,11,11a,12,12a,13,13a-hexadecahydroindeno[5',6':4,5]cycloocta[1,2-c]pyran-10-yl N-cyclohexylcarbamate]"

# Same assay, conditions: agar plate dilution method, Trichosporon cutaneum IFO 1189, culture at 37° C. for 2 days, yeast-nitrogen base with 1% glucose
row,MIC (minimum growth inhibition concentration),SMILES
1,≥ 100 µg/mL,"C=C1C2CC3C(C(C)C)C(OC(=O)CC(C)(O)CC(C)CC)CC3(C)CC2C(C)=CCC2C(C)OC(=O)C(O)C12O (stereo not shown) [BE-49385 A, reference compound]"

# Same assay, conditions: fungi against which BE-49385 A does not show an antifungal activity
row,SMILES,antifungal activity (in words)
1,"C=C1C2CC3C(C(C)C)C(OC(=O)CC(C)(O)CC(C)CC)CC3(C)CC2C(C)=CCC2C(C)OC(=O)C(O)C12O (stereo not shown) [BE-49385 A, reference compound]",does not show an antifungal activity

# Source: US6303797A, “Sesterterpene derivatives exhibiting antifungal activities” (Banyu Pharmaceutical Co., Ltd., priority 1998, dated 2001)
